In one series the target is T1, RORγt (Homo sapiens, UniProt P51449).
T1 construct: half maximal effective concentration against RORγt-LBD+-Jurkat cells; expressed in transfected cells; host or cells: Jurkat
T1 sequence (P51449 269-508 limits assumed): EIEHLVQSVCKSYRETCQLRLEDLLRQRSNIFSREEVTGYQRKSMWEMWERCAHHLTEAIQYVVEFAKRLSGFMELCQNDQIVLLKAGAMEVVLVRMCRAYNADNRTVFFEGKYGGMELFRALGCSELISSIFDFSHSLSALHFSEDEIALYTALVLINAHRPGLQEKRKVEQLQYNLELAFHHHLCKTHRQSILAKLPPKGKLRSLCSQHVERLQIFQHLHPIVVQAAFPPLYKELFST
Description: EC50 test, inhibition of RORγt transcription activity (luciferase activity reporter system) in RORγt-LBD+-Jurkat cells. It is filed as cell-based. The conditions noted are these: for EC50: half maximal effective concentration against RORγt-LBD+-Jurkat cells. The text has this: (§1) EC50 and CC50 tests: EC50 (half maximal (50%) effective concentration) is a half maximal effective concentration against RORγt-LBD+-Jurkat cells, and CC50 (median (50%) cytotoxic concentration) is a median cytotoxic concentration against RORγt-LBD+-Jurkat cells.

The nature of series [1]: CC50 test, median cytotoxic concentration against RORγt-LBD+-Jurkat cells. It is filed as cell-based. The conditions noted are these: human.
Source text: as §1

Series [2] has as its system RORγt, IL17A, IL-17F mRNA. Description: mRNA expression of RORγt, IL17A and IL-17F in Th17 cell differentiation in vitro. It is filed as cell-based. The conditions noted are these: FIG. 22, 1.56, 3.12 and 6.25 μM compound vs solvent group. The procedure: (§2) In the figure, the results of solvent group, 1.56 μM compound group, 3.12 μM compound group, and 6.25 μM compound group are shown from left to right.

Another series concerns IL-17A. Description: Intracellular protein expression of IL-17A (flow cytometer), Th17 cells. The conditions noted are these: FIG. 21; 1.56, 3.12 and 6.25 μM compound vs solvent group. It is filed as cell-based.
Source text: The compound for inhibiting RORγt activity as described above may be used in preparation of a therapeutic formulation for the treatment of autoimmune diseases, in preparation of a formulation that inhibits formation of a Th17 cell, in preparation of a formulation that inhibits the RORγt transcription activity, or in preparation of a formulation that inhibits transcription and expression of IL17A gene and/or IL17F gene. The compounds having the structural formula (A) has a good inhibitory effect on RORγt activity. […] Therefore, the compound may be used to produce a formulation of corresponding activity inhibitor, and provide a leading structure for the development of therapeutic drugs for autoimmune diseases.
as §2
Background: In flow cytometry, cells or beads pass a laser one at a time.

A further series deals with other RORs. The conditions noted are these: cited from earlier work.
For the next series, the system named is EAE. The settings on record: high concentrations (40 mg/kg); cited from earlier work.
A further series has as its system Th17 cells. The settings on record: cited from earlier work.

These results are taken from patent US20220227782A1, “COMPOUND FOR INHIBITING RORyt ACTIVITY, PREPARATION METHOD THEREFOR AND APPLICATION THEREOF” (CELLREGEN (BEIJING) LIFE SCIENCE AND TECHNOLOGY CO., LTD., priority 2019, published 2022).

One may read the EC50 as the midpoint of the concentration-response curve. Read a high EC50 as weaker potency. Broadly, the CC50 is the concentration that lowers cell viability or growth by half. A low value points to harm at low concentration.

Compound `Cc1nc(Sc2nnnn2-c2ccccc2)c2c3c(sc2n1)CC(C(=O)Nc1ncc(C)s1)CC3` (stereo not drawn) [Compound 22] yielded an EC50 at RORγt of 9.06 µM. In series [1], this compound came in with a CC50 of 4.32 µM. In series [2], the “inhibition of mRNA expression of RORγt, IL17A and IL-17F (in words)” value (“inhibition of mRNA expression of RORγt” for short) is on record as “significant inhibitory effects”. Also, in the series on IL-17A, the “inhibition of intracellular protein expression of IL-17A (in words)” value (“inhibition … of IL-17A (in words)” for short) is given as “significant inhibitory effects”.

Consider `CCC1CCc2c(sc3nc(C)nc(Sc4nnnn4-c4ccccc4)c23)C1` (stereo not drawn) [Compound 8], for which the EC50 at RORγt is more than 10 µM. This compound had a CC50 in series [1] of more than 10 µM.

At RORγt, `Cc1nc(Sc2nnnn2-c2ccccc2)c2c3c(sc2n1)CC(C(=O)Nc1nc2ccc(F)cc2s1)CC3` (stereo not drawn) [Compound 25] showed an EC50 of more than 10 µM. This compound yielded a CC50 in series [1] of less than 5 µM.

On to `Cc1nc(Sc2nnnn2-c2ccccc2)c2c3c(sc2n1)CC(C)CC3` (stereo not drawn) [Compound 7], for which, at RORγt, the EC50 was more than 10 µM. The CC50 in series [1] is more than 10 µM.

As to `Cc1nc(Sc2nnnn2-c2ccccc2)c2c3c(sc2n1)CCCC3` [Compound 6], it took 2.79 µM to reach a half-maximal effect on RORγt (EC50). In series [1], this compound displayed a cytotoxic concentration (CC50) of 3.98 µM. In series [2], the “inhibition of mRNA expression of RORγt” value is “significant inhibitory effects”. Moreover, the “inhibition … of IL-17A (in words)” value in the series with IL-17A is “significant inhibitory effects”.

Consider `Cc1nc(Sc2nnnn2-c2ccccc2)c2c3c(sc2n1)CC(C(=O)Nc1ccc(F)cn1)CC3` (stereo not drawn) [Compound 24], for which the EC50 on RORγt was more than 10 µM. Besides, the CC50 in series [1] is less than 10 µM.

With `Cc1nc(Sc2nnnn2-c2ccccc2)c2c3c(sc2n1)CC(C(=O)Nc1cccc(Cl)c1)CC3` (stereo not drawn) [Compound 19], the EC50 at RORγt is more than 10 µM. In series [1], this compound came in with a CC50 of less than 10 µM.

Consider `CC(=O)Nc1nc(C)c(S(=O)(=O)Nc2ccc(C(O)(C(F)(F)F)C(F)(F)F)cc2)s1` [SR1001], for which the “selectivity (interaction with other RORs)” value with other RORs is on record as “poor selectivity”. The “reduction of clinical symptoms of EAE in vivo” value with EAE was “only reduce the clinical symptoms of EAE slightly”. The “inhibition of differentiation of Th17 cells in vitro” value in the series with Th17 cells was “effectively inhibit the differentiation of Th17 cells”.

In turn, `Cc1nc(Sc2nnnn2-c2ccccc2)c2c3c(sc2n1)CC(C(=O)O)CC3` (stereo not drawn) [Compound 14] displayed an EC50 on RORγt of more than 20 µM. In addition, the CC50 in series [1] is more than 10 µM.

Compound `Cc1nc(Sc2nnnn2-c2ccccc2)c2c3c(sc2n1)CC(C(=O)Nc1ccc(Br)cc1)CC3` (stereo not drawn) [Compound 20] gave an EC50 on RORγt of more than 10 µM. The CC50 in series [1] was less than 10 µM.

At RORγt, `Cc1nc(Sc2nnnn2-c2ccccc2)c2c3c(sc2n1)CC(F)(F)CC3` [Compound 12] registered an EC50 of 1.35 µM. For the same compound, the CC50 in series [1] is less than 1 µM.

For the compound `Cc1nc(Sc2nnnn2-c2ccccc2)c2c3c(sc2n1)CC(C(C)(C)C)CC3` (stereo not drawn) [Compound 11], the EC50 on RORγt was found to be 8.25 µM. Besides, the CC50 in series [1] was less than 1 µM.

Turning to `O=C(Cc1nc(Sc2nnnn2-c2ccccc2)c2c3c(sc2n1)CCCC3)Nc1nc2ccccc2[nH]1` [Compound 31], the “inhibiting RORγt transcription activity (in words)” value on RORγt (FIG. 20) is “significant effect”. This compound displayed an EC50 on RORγt of 0.85 µM. This compound also showed a CC50 in series [1] of 9.18 µM. The “inhibition of mRNA expression of RORγt” value in series [2] is “significant inhibitory effects”. In addition, in the series with IL-17A, the “inhibition … of IL-17A (in words)” value is reported as “significant inhibitory effects”.

Turning to `CCCC1CCc2c(sc3nc(C)nc(Sc4nnnn4-c4ccccc4)c23)C1` (stereo not drawn) [Compound 9], the EC50 on RORγt was more than 10 µM. For the same compound, the CC50 in series [1] is more than 10 µM.

`Cc1nc(Sc2nnnn2-c2ccccc2)c2c3c(sc2n1)CC(C(=O)Nc1nccs1)CC3` (stereo not drawn) [Compound 21]: the EC50 at RORγt is more than 10 µM. The CC50 in series [1] is less than 10 µM.

Take `Cc1nc(Sc2nnnn2-c2ccccc2)c2c3c(sc2n1)CC(C(=O)NCc1ccccc1)CC3` (stereo not drawn) [Compound 18]: the midpoint of the response at RORγt, the EC50, lay at 12.6 µM. In series [1], the CC50 was more than 10 µM.

Regarding `Cc1nc(Sc2nnnn2-c2ccccc2)c2c3c(sc2n1)CC(C(=O)Nc1ccc(C(C)C)cc1)CC3` (stereo not drawn) [Compound 17], the EC50 on RORγt was more than 10 µM. In series [1], this compound displayed a CC50 of less than 1 µM.

The compound `Cc1cccc(NC(=O)C2CCc3c(sc4nc(C)nc(Sc5nnnn5-c5ccccc5)c34)C2)c1` (stereo not drawn) [Compound 16] returned an EC50 at RORγt of more than 10 µM. For the same compound, in series [1], the CC50 is less than 10 µM.

At RORγt, `Cc1nc(Sc2nnnn2-c2ccccc2)c2c3c(sc2n1)CC(C(=O)NC1CCOCC1)CC3` (stereo not drawn) [Compound 15] returned an EC50 of more than 10 µM. In series [1], the CC50 is less than 10 µM.

The compound `Cc1nc(Sc2nnnn2-c2ccccc2)c2c3c(sc2n1)CC(C(=O)Nc1cccnc1)CC3` (stereo not drawn) [Compound 23] gave an EC50 at RORγt of more than 10 µM. The CC50 in series [1] was less than 5 µM.
